The test system of experiment [1] is normal diet fed mice. Briefly: In vivo assay of anti-lipolytic activity in rodent model (plasma FFA). Particulars: orally administered, 50mg/kg, 15 minutes following the dosing, vs vehicle (FIG. 8). The procedure:
Male C57BL/6N wild-type are housed one per cage in a room maintained on a 12 h light/dark cycle under constant temperature (22-25° C.) with ad libitum access to food and water. The anti-lipolytic effects of the compounds of the invention are studied in awake mice. Animals are fasted overnight before experimental use. On the day of the experiment, animals are put in metabolic cages and left undisturbed to acclimate to the environment for 1-2 h. blood samples are taken at indicated time points from the intraorbital retrobulbar plexus. A 1% sodium citrate saline solution is used to flush the lines. A pre-treatment blood sample is obtained from each animal to determine baseline values for free fatty acids (FFA) and triglycerides (TG). Compounds of the invention are given via oral gavage, sc injection, iv injection or ip injection for each different series of experiments. Blood samples are collected into pre-cooled tubes pre-coated with heparin (200 μl blood, Li-heparin, Sarstedt) for determination triglycerides and glycerol and in tri-potassium EDTA added sodium fluoride (200 μl blood, K3-EDTA, 1.6 mg/mL+1% NaF, Sarstedt) for determination of plasma free fatty acids. The tubes are placed on wet ice pending processing. Blood samples will be centrifuged at 4000×g, at 4° C., 15 min the resulting plasma will be transferred into non-coated tubes and stored at −80° C. until analyses. […]

For experiment [2], the target named is T1, human GPR43 receptor (hGPR43) (Homo sapiens, UniProt O15552).
T1 construct: expressed in transfected cells
T1 sequence (O15552 1-330): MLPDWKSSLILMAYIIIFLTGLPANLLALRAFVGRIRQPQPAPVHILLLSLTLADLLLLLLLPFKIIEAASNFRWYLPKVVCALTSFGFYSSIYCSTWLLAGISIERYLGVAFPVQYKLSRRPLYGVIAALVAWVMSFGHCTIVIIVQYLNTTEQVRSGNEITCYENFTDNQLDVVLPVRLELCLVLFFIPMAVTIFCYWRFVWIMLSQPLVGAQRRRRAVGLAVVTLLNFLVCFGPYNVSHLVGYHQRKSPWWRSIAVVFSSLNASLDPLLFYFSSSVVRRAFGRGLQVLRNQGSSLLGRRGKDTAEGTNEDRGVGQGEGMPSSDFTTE
As to the kind of experiment: GTPγS binding assay (SPA method). The experiment is classed as biochemical. The following applies: membranes expressing hGPR43; assay performed in the presence of SCFA; read-out: EC50 (nM) in GTPγ35S assay. The method, boiled down: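 Membranes (5 μg) from hGPR43-expressing cells were incubated 30 min at room temperature with [35S]GTPγS, compounds (30 μM to 1 nM) and WGA SPA beads. Buffer was 20 mM HEPES pH 7.4, 100 mM NaCl, 10 μg/ml saponin, 30 mM MgCl2 and 10 μM GDP, with SCFA present. Bound label was read by scintillation counting.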

For experiment [3], the system named is adipocytes isolated from normal rats. Briefly: Lipolysis assay in isolated adipocytes (normal rats). Format: cell-based. The following applies: adipocytes isolated from normal rats (FIGS. 6 and 7). The procedure: Isolated adipocytes were diluted to 5% in KRH-buffer and were pre-treated with compound of the invention (30 μM, 10 μM and 1 μM) for 30 min at 37° C./120 rpm. After the pre-treatment, Isoprenaline (1 μM) was added to the adipocytes followed by 30 min incubation at 37° C./150 rpm. The reactions were put on ice and the buffer was assayed spectrophotometrically for the production of […] from glycerol breakdown in reactions catalyzed by glycerol kinase and glycerol-3-phosphate dehydrogenase and/or Non Esterified Fatty Acid (NEFA). Each data point was investigated in triplicates in two independent experiments.

The test system of experiment [4] is NCI-H716 cells. As to the kind of experiment: GLP-1 release from NCI-H716 cells. Format: cell-based, Human. The following applies: NCI-H716 cells (FIG. 9). The method, then: Human intestinal cell line NCI-H716 has been described as cellular model to assess compounds mimicking nutrient-mediated effect such as glucagon-like peptide-1 (GLP-1) secretion.
NCl-H716 cells (ATCC, Manassas) are cultured in Dulbecco's modified eagle's medium (DMEM) containing 10% (v/v) bovine serum, 2 mM L-glutamine, 100 IU/ml penicillin and 100 μg/ml streptomycin in 75 ml flask. Cell adhesion and endocrine differentiation is initiated by growing cells in 96-well plate coated with matrigel in High Glucose DMEM containing 10% (v/v) bovine serum, 2 mM L-glutamine, 100 IU/ml penicillin and 100 μg/ml streptomycin for 2 days. On day 2, the medium is removed and cells are washed once with a pre-warmed wash buffer (Phosphate Buffered salt solution). The wash solution is removed and the SCFA or the compounds of the invention, or a combination of both, are added at the desired concentration in High Glucose DMEM containing 0.1% (v/v) bovine serum and incubated for 2 hours at 37° C. The supernatants are collected in a container. Using the cell-free supernatants, the GLP-1 amount is assessed using a GLP-1 specific ELISA assay kit according the manufacturer's recommendations (ALPCON).

Entries after “also recorded” stand apart in the source; their conditions may differ.

On to `O=C(O)C[C@@H](CC1CCCC1)C(=O)N(c1nc(-c2ccccc2-c2ccc(N3CCCC3=O)nc2)cs1)C1CC1` [Compound 183, (R)-3-(cyclopentylmethyl)-4-(cyclopropyl(4-(2-(6-(2-oxopyrrolidin-1-yl)pyridin-3-yl)phenyl)thiazol-2-yl)amino)-4-oxobutanoic acid], for which the “in vivo FFA baseline” value in experiment [1] is listed as “inhibition; also recorded: inhibit”. Besides, the EC50 in experiment [2] is 57 nM. Further, in experiment [3], the isoprenaline-induced lipolysis entry is on record as “inhibit”.
For “(3R)-4-((4-(2-chlorophenyl)thiazol-2-yl)(methyl)amino)-4-oxo-3-((tetrahydrofuran-2-yl)methyl)butanoic acid [Compound 155]”, in experiment [2], the EC50 was 94 nM. Moreover, in experiment [3], the isoprenaline-induced lipolysis result is recorded as “inhibit”.
For the molecule `COc1ccc(-c2ccccc2-c2csc(N(C)C(=O)[C@@H](CC(=O)O)CC3CCCC3)n2)cn1` [Compound 139, (R)-3-(cyclopentylmethyl)-4-((4-(2-(6-methoxypyridin-3-yl)phenyl)thiazol-2-yl)(methyl)amino)-4-oxobutanoic acid], the EC50 in experiment [2] came out at 38 nM. The isoprenaline-induced lipolysis result in experiment [3] is reported as “inhibit”.
Consider `COc1ccc(-c2ccccc2-c2csc(N(C(=O)[C@@H](CC(=O)O)CC3CCCC3)C3CC3)n2)cn1` [Compound 169, (R)-3-(cyclopentylmethyl)-4-(cyclopropyl(4-(2-(6-methoxypyridin-3-yl)phenyl)thiazol-2-yl)amino)-4-oxobutanoic acid], for which, in experiment [1], the “in vivo FFA baseline” value is “inhibition; also recorded: inhibit”. Also, in experiment [3], the isoprenaline-induced lipolysis result is listed as “inhibit”. Further, in experiment [4], the GLP-1 secretion result is “significantly increases”.
Turning to `O=C(O)C[C@@H](CC1CCCC1)C(=O)N(c1nc(-c2cc(Cl)ccc2Cl)cs1)C1CC1` [Compound 166, (R)-3-(cyclopentylmethyl)-4-(cyclopropyl(4-(2,5-dichlorophenyl)thiazol-2-yl)amino)-4-oxobutanoic acid], the EC50 in experiment [2] turned out to be 13 nM.
Turning to `O=C(O)C[C@@H](Cc1ccccc1)C(=O)Nc1ccc(-c2ccccc2Cl)c[n+]1[O-]` [Compound 196, (R)-2-(2-benzyl-3-carboxypropanamido)-5-(2-chlorophenyl)pyridine 1-oxide], in experiment [2], the EC50 was determined as 1830 nM.
With `CN(C(=O)[C@@H](CC(=O)O)Cc1ccccc1)c1nc(-c2ccccc2-c2cnc3c(ccn3C)c2)cs1` [Compound 217, (R)-3-benzyl-4-(methyl(4-(2-(1-methyl-1H-pyrrolo[2,3-b]pyridin-5-yl)phenyl)thiazol-2-yl)amino)-4-oxobutanoic acid], in experiment [2], the EC50 amounted to 126 nM.
Turning to `O=C(O)C[C@H](C(=O)Nc1nc(-c2ccccc2Cl)cs1)c1ccccc1` [Compound 9, (S)-4-(4-(2-chlorophenyl)thiazol-2-ylamino)-4-oxo-3-phenylbutanoic acid], the EC50 in experiment [2] came out at 60 nM.
As for `CN(C(=O)[C@@H](CC(=O)O)Cc1ccccc1)c1nc(-c2ccccc2-c2ccc(OC3CCOCC3)nc2)cs1` [Compound 141, (R)-3-benzyl-4-(methyl(4-(2-(6-((tetrahydro-2H-pyran-4-yl)oxy)pyridin-3-yl)phenyl)thiazol-2-yl)amino)-4-oxobutanoic acid], in experiment [2], the 50% effective concentration (EC50) was determined as 996 nM.
Regarding `O=C(O)C[C@@H](Cc1ccccc1)C(=O)Nc1cnc(-c2ccccc2Cl)cn1` [Compound 197, (R)-3-benzyl-4-((5-(2-chlorophenyl)pyrazin-2-yl)amino)-4-oxobutanoic acid], in experiment [2], the EC50 was 1910 nM.
For `CN(C(=O)[C@@H](CC(=O)O)CC1CCCC1)c1nc(-c2ccccc2-c2ccc(N3CCOCC3)nc2)cs1` [Compound 171, (R)-3-(cyclopentylmethyl)-4-(methyl(4-(2-(6-morpholinopyridin-3-yl)phenyl)thiazol-2-yl)amino)-4-oxobutanoic acid], the EC50 in experiment [2] amounted to 50 nM.
In the case of `COCCN(C(=O)[C@@H](CC(=O)O)Cc1ccccc1)c1nc(-c2ccccc2Cl)cs1` [Compound 199, (R)-3-benzyl-4-((4-(2-chlorophenyl)thiazol-2-yl)(2-methoxyethyl)amino)-4-oxobutanoic acid], the EC50 in experiment [2] stood at 1380 nM.

Source of the values: US20110230477A1, “COMPOUNDS, PHARMACEUTICAL COMPOSITION AND METHODS FOR USE IN TREATING METABOLIC DISORDERS” (Euroscreen S.A., priority 2008, published 2011).
